Measured values taken from ChEMBL document CHEMBL1139127, “Structural modifications of (1S,3S)-3-amino-4-difluoromethylenecyclopentanecarboxylic acid, a potent irreversible inhibitor of GABA aminotransferase” (Bioorg Med Chem Lett, 2007).
Active and inactive are the calls of the source. No cut-off for these calls is given here.

Assays:
[1] = target: 4-aminobutyrate aminotransferase, mitochondrial (Homo sapiens) (UniProt P80404); test: Inhibition of GABA-AT at 1.7 mM
[2] = target: 4-aminobutyrate aminotransferase, mitochondrial (Homo sapiens) (UniProt P80404); test: Inhibition of GABA-AT at 10 mM assessed as residual activity

Sequence of 4-aminobutyrate aminotransferase, mitochondrial (Homo sapiens) (P80404 whole entry): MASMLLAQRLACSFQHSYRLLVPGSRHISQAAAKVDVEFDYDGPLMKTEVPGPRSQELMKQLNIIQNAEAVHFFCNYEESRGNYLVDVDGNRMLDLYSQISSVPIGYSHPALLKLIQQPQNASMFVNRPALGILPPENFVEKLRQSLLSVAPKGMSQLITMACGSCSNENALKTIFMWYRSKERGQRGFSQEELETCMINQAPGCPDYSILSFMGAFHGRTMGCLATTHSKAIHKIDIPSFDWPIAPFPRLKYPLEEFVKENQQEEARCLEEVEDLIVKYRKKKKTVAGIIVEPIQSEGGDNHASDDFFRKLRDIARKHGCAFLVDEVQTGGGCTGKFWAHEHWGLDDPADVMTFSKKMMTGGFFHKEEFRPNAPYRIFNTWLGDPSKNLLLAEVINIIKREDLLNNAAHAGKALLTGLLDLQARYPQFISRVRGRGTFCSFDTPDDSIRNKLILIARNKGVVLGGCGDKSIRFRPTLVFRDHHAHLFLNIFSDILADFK

Activity [1]: inactive | Activity [2]: 58%
SMILES: N[C@H]1C[C@@H](C(=O)O)CC1=C(Cl)Cl
